In US20260124222A1, “ISOTHIAZOLYLCARBOXAMIDE COMPOUNDS AND THEIR USE IN THERAPY” (HOTSPOT THERAPEUTICS, INC., priority 2022, published 2026) one finds IC50 data, which are given here for 25 compounds.

The target in the experiment is T1, Avi-tagged FL MALT-1 (Homo sapiens, UniProt Q9UDY8).
T1 construct: Avi-tagged FL MALT-1 (Pharmaron, stored at −70° C.); Avi-tag; purchased Pharmaron
T1 sequence (Q9UDY8 1-824): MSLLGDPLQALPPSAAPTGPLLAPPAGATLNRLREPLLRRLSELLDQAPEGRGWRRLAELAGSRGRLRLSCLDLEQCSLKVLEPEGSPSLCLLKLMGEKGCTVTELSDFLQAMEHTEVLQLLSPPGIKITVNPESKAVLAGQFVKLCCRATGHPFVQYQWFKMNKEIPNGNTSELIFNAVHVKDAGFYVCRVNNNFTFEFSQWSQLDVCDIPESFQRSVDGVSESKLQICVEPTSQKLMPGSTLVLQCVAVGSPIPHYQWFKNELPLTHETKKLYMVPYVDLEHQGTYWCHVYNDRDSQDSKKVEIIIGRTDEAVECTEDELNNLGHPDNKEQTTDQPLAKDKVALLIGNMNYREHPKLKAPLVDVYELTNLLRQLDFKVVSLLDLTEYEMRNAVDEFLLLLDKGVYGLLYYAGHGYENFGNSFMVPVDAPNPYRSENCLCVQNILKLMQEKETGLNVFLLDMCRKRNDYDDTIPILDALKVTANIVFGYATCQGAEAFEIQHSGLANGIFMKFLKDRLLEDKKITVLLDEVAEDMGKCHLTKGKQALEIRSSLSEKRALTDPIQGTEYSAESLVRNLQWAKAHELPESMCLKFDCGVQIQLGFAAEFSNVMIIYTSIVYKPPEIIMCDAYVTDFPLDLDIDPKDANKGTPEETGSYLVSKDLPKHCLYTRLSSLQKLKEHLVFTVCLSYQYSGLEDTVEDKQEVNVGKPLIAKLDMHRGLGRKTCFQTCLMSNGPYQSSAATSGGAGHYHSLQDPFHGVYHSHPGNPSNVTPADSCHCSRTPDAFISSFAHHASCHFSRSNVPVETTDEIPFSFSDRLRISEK
Description: MALT-1 Fluorogenic Peptide Cleavage Assay (MALT1 inhibition assay). To be noted: Ac-LRSR-AMC peptide substrate; 30 min pre-incubation, 90 min reaction at room temperature; fluorescence. The experiment is classed as biochemical. The gist of the method:
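Full-length Avi-tagged enzyme preincubated 30 min at room temperature with compound (2% DMSO final) in HEPES pH 6.89 buffer with sodium citrate, TCEP, EDTA and CHAPS. Ac-LRSR-AMC substrate added at Km or 10×Km (working stocks 50 or […] μM); fluorescence (ex 342/em 441 nm) after 90 min; IC50 from sigmoidal fit.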
Broadly, the IC50 is the concentration that gives 50% inhibition. For the compound `O=C(Nc1ccnc(C(F)(F)F)c1)c1snc(-c2ccncc2)c1C1CC1` [I-184, 4-cyclopropyl-3-(pyridin-4-yl)-N-(2-(trifluoromethyl)pyridin-4-yl)isothiazole-5-carboxamide], the 50% inhibitory concentration (IC50) was not above 400 nM.

In the case of `O=C(Nc1ccnc(C(F)(F)F)c1)c1snc(-c2ccn3ccnc3c2)c1C1CC1` [I-185, 4-cyclopropyl-3-(imidazo[1,2-a]pyridin-7-yl)-N-(2-(trifluoromethyl)pyridin-4-yl)isothiazole-5-carboxamide], the IC50 was 1000 to 2500 nM. The value for `O=C(Nc1ccnc(C(F)(F)F)c1)c1snc(-c2ccc3nccn3c2)c1C1CC1` [I-186, 4-cyclopropyl-3-{imidazo[1,2-a]pyridin-6-yl}-N-[2-(trifluoromethyl)pyridin-4-yl]-1,2-thiazole-5-carboxamide] was not above 400 nM; that for `O=C(Nc1ccnc(C(F)(F)F)c1)c1snc(-c2c(Cl)cncc2Cl)c1C1CC1` [I-187, 4-cyclopropyl-3-(3,5-dichloropyridin-4-yl)-N-(2-(trifluoromethyl)pyridin-4-yl)isothiazole-5-carboxamide] was not above 400 nM; that for `N#Cc1cc(NC(=O)c2snc(-c3cccc4c(=O)[nH]ccc34)c2C2CC2)cnc1-n1nccn1` [I-188, N-(5-cyano-6-(2H-1,2,3-triazol-2-yl)pyridin-3-yl)-4-cyclopropyl-3-(1-oxo-1,2-dihydroisoquinolin-5-yl)isothiazole-5-carboxamide] was not above 400 nM. The value for `O=C(Nc1ccnc(C(F)(F)F)c1)c1snc(-c2cccc3c(=O)[nH]ccc23)c1C1CC1` [I-189, 4-cyclopropyl-3-(1-oxo-1,2-dihydroisoquinolin-5-yl)-N-(2-(trifluoromethyl)pyridin-4-yl)isothiazole-5-carboxamide] was not above 400 nM. Then `O=C(Nc1ccc(C(=O)N2CC(O)C2)c(Cl)c1)c1snc(-c2cccc3nccn23)c1C1CC1` [I-190, N-(3-chloro-4-(3-hydroxyazetidine-1-carbonyl)phenyl)-4-cyclopropyl-3-(imidazo[1,2-a]pyridin-5-yl)isothiazole-5-carboxamide], with not above 400 nM. In the case of `Cc1cc(-c2nsc(C(=O)Nc3ccnc(C(F)(F)F)c3)c2C2CC2)ccn1` [I-191, 4-cyclopropyl-3-(2-methylpyridin-4-yl)-N-(2-(trifluoromethyl)pyridin-4-yl)isothiazole-5-carboxamide], the IC50 is not above 400 nM. Then `O=C(Nc1ccnc(C(F)(F)F)c1)c1snc(-c2cnccc2F)c1C1CC1` [I-192, 4-cyclopropyl-3-(4-fluoropyridin-3-yl)-N-(2-(trifluoromethyl)pyridin-4-yl)isothiazole-5-carboxamide], with not above 400 nM.

The compound `CNC(=O)c1cccc(-c2nsc(C(=O)Nc3ccnc(C(F)(F)F)c3)c2C2CC2)c1` [I-193, 4-cyclopropyl-3-(3-(methylcarbamoyl)phenyl)-N-(2-(trifluoromethyl)pyridin-4-yl)isothiazole-5-carboxamide] gave a half-inhibitory concentration (IC50) of 400 to 1000 nM. `O=C(Nc1ccnc(C(F)(F)F)c1)c1snc(-c2ccc3cncn3c2)c1C1CC1` [I-194, 4-cyclopropyl-3-(imidazo[1,5-a]pyridin-6-yl)-N-(2-(trifluoromethyl)pyridin-4-yl)isothiazole-5-carboxamide]: the IC50 was not above 400 nM. The value for `O=C(Nc1ccnc(C(F)(F)F)c1)c1snc(-c2cccc(F)c2)c1C1CC1` [I-195, 4-cyclopropyl-3-(3-fluorophenyl)-N-[2-(trifluoromethyl)pyridin-4-yl]-1,2-thiazole-5-carboxamide] was not above 400 nM; that for `Cc1cc(NC(=O)c2snc(-c3ccccc3)c2C2CC2)ccn1` [I-196, 4-cyclopropyl-N-(2-methylpyridin-4-yl)-3-phenylisothiazole-5-carboxamide] was not above 400 nM; that for `Cc1noc(C)c1-c1nsc(C(=O)Nc2ccnc(C(F)(F)F)c2)c1C1CC1` [I-197, 4-cyclopropyl-3-(3,5-dimethylisoxazol-4-yl)-N-(2-(trifluoromethyl)pyridin-4-yl)isothiazole-5-carboxamide] was not above 400 nM.

As to `O=C(Nc1ccc(C(=O)N2CC(O)C2)c(Cl)c1)c1snc(-c2cccc3c(=O)[nH]ccc23)c1C1CC1` [I-198, N-(3-chloro-4-(3-hydroxyazetidine-1-carbonyl)phenyl)-4-cyclopropyl-3-(1-oxo-1,2-dihydroisoquinolin-5-yl)isothiazole-5-carboxamide], the half-inhibitory concentration (IC50) was not above 400 nM. Then `Cc1cc(NC(=O)c2snc(-c3cccc4ncccc34)c2C2CC2)ccn1` [I-199, 4-cyclopropyl-N-(2-methylpyridin-4-yl)-3-(quinolin-5-yl)isothiazole-5-carboxamide], with not above 400 nM. Then `Cc1cc(NC(=O)c2snc(-c3cccc4c(=O)[nH]ccc34)c2C2CC2)ccn1` [I-200, 4-cyclopropyl-N-(2-methylpyridin-4-yl)-3-(1-oxo-1,2-dihydroisoquinolin-5-yl)isothiazole-5-carboxamide], with not above 400 nM; and `Cc1cc(NC(=O)c2snc([C@@H]3CCOC3)c2C2CC2)ccn1` [I-201, (S)-4-cyclopropyl-N-(2-methylpyridin-4-yl)-3-(tetrahydrofuran-3-yl)isothiazole-5-carboxamide], with more than 2500 nM; and `Cc1cc(NC(=O)c2snc([C@H]3CCOC3)c2C2CC2)ccn1` [I-202, 4-cyclopropyl-N-(2-methylpyridin-4-yl)-3-[(3R)-oxolan-3-yl]-1,2-thiazole-5-carboxamide], with more than 2500 nM. The value for `Cn1cc2c(-c3nsc(C(=O)Nc4ccc(C(=O)N5CC(O)C5)c(Cl)c4)c3C3CC3)cccc2n1` [I-203, N-(3-chloro-4-(3-hydroxyazetidine-1-carbonyl)phenyl)-4-cyclopropyl-3-(2-methyl-2H-indazol-4-yl)isothiazole-5-carboxamide] was 400 to 1000 nM.

Turning to `O=C(Nc1ccnc(C(F)(F)F)c1)c1snc([C@@H]2CCOC2)c1C1CC1` [I-204, (S)-4-cyclopropyl-3-(tetrahydrofuran-3-yl)-N-(2-(trifluoromethyl)pyridin-4-yl)isothiazole-5-carboxamide], the half-maximal inhibitory concentration (IC50) is more than 2500 nM. `O=C(Nc1ccnc(C(F)(F)F)c1)c1snc([C@H]2CCOC2)c1C1CC1` [I-205, (R)-4-cyclopropyl-3-(tetrahydrofuran-3-yl)-N-(2-(trifluoromethyl)pyridin-4-yl)isothiazole-5-carboxamide]: the half-inhibitory concentration (IC50) is 1000 to 2500 nM. The value for `Cn1cc2c(-c3nsc(C(=O)Nc4cnc(-n5nccn5)c(C#N)c4)c3C3CC3)cccc2n1` [I-206, N-(5-cyano-6-(2H-1,2,3-triazol-2-yl)pyridin-3-yl)-4-cyclopropyl-3-(2-methyl-2H-indazol-4-yl)isothiazole-5-carboxamide] was not above 400 nM; that for `Cn1nc2cccc(-c3nsc(C(=O)Nc4ccnc(C(F)(F)F)c4)c3C3CC3)c2n1` [I-207, 4-cyclopropyl-3-(2-methyl-2H-benzo[d][1,2,3]triazol-4-yl)-N-(2-(trifluoromethyl)pyridin-4-yl)isothiazole-5-carboxamide] was not above 400 nM; that for `Cn1cc2cccc(-c3nsc(C(=O)Nc4ccnc(C(F)(F)F)c4)c3C3CC3)c2n1` [I-208, 4-cyclopropyl-3-(2-methyl-2H-indazol-7-yl)-N-(2-(trifluoromethyl)pyridin-4-yl)isothiazole-5-carboxamide] was 400 to 1000 nM.
